Experimental data from patent US12576087B2, “Aryloxypiperidine pyrazole compounds as indoleamine 2,3-dioxygenase inhibitors” (Merck Sharp & Dohme LLC, priority 2018, dated 2026).
pIC50: −log10 of the molar value.

Molecular target: IDO1 (Homo sapiens, UniProt P14902)
Assay: IDO1 Human Whole Blood Assay
Format: cell-based
Conditions: WBLD taken as whole blood; read-out: WBLD IC50
Procedure: Compounds to be tested were serially diluted in ten 3-fold steps in DMSO starting from 10 mM. 3 μL of compound dilutions or DMSO alone were then dispensed from the dilution plate into a polypropylene 96-well assay plate containing 97 μL of RPMI medium using an Echo 555 acoustic liquid handler (Labcyte). LPS and IFNγ was prepared in RPMI medium to a 10× of final conc. (1000 ng/mL), final concentration is 100 ng/mL.
Human whole blood was drawn in sodium heparin coated tubes from healthy internal donors. 240 μL of blood was transferred to each of the wells of a v-bottom 96 well plate. 30 μL of compound was transferred from intermediate dilution plate, and incubated for 15 min. 30 μL from stimulants was then transferred to blood and mixed thoroughly. Plate was covered with breathable membrane and incubated at 37° C. for overnight (18 h).
On day 2, isotope labeled standard solutions of kunurenine and tryptophan was made in water at 10× concentration and 30 μL was added to the blood at 3 μM final concentration. The assay plates were centrifuged at 300×G for 10 min with no brake to separate plasma from red blood cells. 60 μL of plasma samples was removed without disturbing red blood cells. Plasma was diluted with RPMI in 1:1 ratio and proteins were precipitated out with two volumes of Acetonitrile. The plates were centrifuged at 4000×G for 60 min. 20 μL of supernatant was carefully transferred to a 384 well plate containing 40 μL of 0.1% formic acid in water and analyzed by LC/MS/MS.
LC/MS/MS analyses were performed using Thermo Fisher's LX4-TSQ Quantum Ultra system. This system consists of four Agilent binary high-performance liquid chromatography (HPLC) pumps and a TSQ Quantum Ultra triple quadrupole MS/MS instrument. For each sample, 5 μL were injected onto an Atlantis T3 column (2.1 mm×150 mm, 3 μm particle size) from Waters. The mobile phase gradient pumped at 0.8 mL/min was used to elute the analytes from the column at 25° C. The elution started at 0% B increasing linearly to 25% B at 6.5 min, holding at 25% for 1 min, re-equilibrating to 10 min. Mobile phase A consisted of 0.1% formic acid in water. Mobile phase B consisted of 0.1% of formic acid in acetonitrile. Data were acquired in positive mode using a HESI interface. The operational parameters for the TSQ Quantum Ultra instrument were a spray voltage of 4000 V, capillary temperature of 380° C., vaporizer temperature 400° C., shealth gas 60 arbitrary units, Aux gas 20 arbitrary units, tube lens 85 and collision gas 1.2 mTorr. SRM chromatograms of kynurenine (Q1: 209.2>Q3:94.0) and internal standard (Q1: 215.3>Q3:98.2) were collected for 90 sec. The peak area was integrated by Xcalibur Quan software. The ratios between the kynurenine generated in the reaction and 2D6-Kynurenine spiked-in internal standard were used to generate percentage inhibition and IC50 values. Compounds were titrated and IC50's were calculated by 4 parameter sigmoidal curve fitting formula.

Chain of IDO1 (P14902 whole entry): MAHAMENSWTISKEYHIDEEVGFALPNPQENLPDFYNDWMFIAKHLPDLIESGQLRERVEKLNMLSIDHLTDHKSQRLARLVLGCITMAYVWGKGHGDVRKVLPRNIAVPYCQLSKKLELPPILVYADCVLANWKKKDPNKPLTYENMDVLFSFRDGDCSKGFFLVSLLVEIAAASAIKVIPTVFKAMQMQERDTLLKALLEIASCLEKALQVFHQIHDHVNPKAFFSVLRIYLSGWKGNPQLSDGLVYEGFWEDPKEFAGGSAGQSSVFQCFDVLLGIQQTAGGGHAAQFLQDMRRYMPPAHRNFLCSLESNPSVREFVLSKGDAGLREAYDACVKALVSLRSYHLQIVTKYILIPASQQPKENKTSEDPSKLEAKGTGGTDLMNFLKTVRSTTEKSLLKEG

pIC50	Compound
6.85	Cc1ccc(F)cc1OC1CCN(C(=O)Cn2nc(C(=O)N3C[C@@H](C)O[C@@H](C)C3)c3c2CCC3)CC1 [Example 90, 2-(3-(cis-2,6-Dimethylmorpholine-4-carbonyl)-5,6-dihydrocyclopenta[c]pyrazol-1(4H)-yl)-1-(4-(5-fluoro-2-methylphenoxy)piperidin-1-yl)ethan-1-one]
6.58	Cc1ccc(Cl)c(OC2CCN(C(=O)Cn3nc(C(=O)N4C[C@@H](C)O[C@@H](C)C4)c4c3CCC4)CC2)c1 [Example 93, 1-[4-(2-chloro-5-methylphenoxy)piperidin-1-yl]-2-{3-[(2R,6S)-2,6-dimethylmorpholine-4-carbonyl]-5,6-dihydrocyclopenta[c]pyrazol-1(4H)-yl}ethan-1-one]
6.44	Cc1ccc(OC2CCN(C(=O)Cn3nc(C(=O)N4C[C@@H](C)O[C@@H](C)C4)c4c3CCC4)CC2)cc1 [Example 95, 2-{3-[(2R,6S)-2,6-dimethylmorpholine-4-carbonyl]-5,6-dihydrocyclopenta[c]pyrazol-1(4H)-yl}-1-[4-(4-methylphenoxy)piperidin-1-yl]ethan-1-one]
7.33	Cc1ccccc1OC1CCN(C(=O)Cn2nc(C(=O)N3C[C@@H](C)O[C@@H](C)C3)c3c2CCC3)CC1 [Example 116, 2-{3-[(2R,6S)-2,6-dimethylmorpholine-4-carbonyl]-5,6-dihydrocyclopenta[c]pyrazol-1(4H)-yl}-1-[4-(2-methylphenoxy)piperidin-1-yl]ethan-1-one]
6.31	C[C@@H]1CN(C(=O)c2nn(CC(=O)N3CCC(Oc4ccc(F)cc4Cl)CC3)c3c2CCC3)C[C@H](C)O1 [Example 117, 1-[4-(2-chloro-4-fluorophenoxy)piperidin-1-yl]-2-{3-[(2R,6S)-2,6-dimethylmorpholine-4-carbonyl]-5,6-dihydrocyclopenta[c]pyrazol-1(4H)-yl}ethan-1-one]
7.31	Cc1c(F)cccc1OC1CCN(C(=O)Cn2nc(C(=O)N3C[C@@H](C)O[C@@H](C)C3)c3c2CCC3)CC1 [Example 128, 2-{3-[(2R,6S)-2,6-dimethylmorpholine-4-carbonyl]-5,6-dihydrocyclopenta[c]pyrazol-1(4H)-yl}-1-[4-(3-fluoro-2-methylphenoxy)piperidin-1-yl]ethan-1-one]
6.82	C[C@@H]1CN(C(=O)c2nn(CC(=O)N3CCC(Oc4cc(F)ccc4Cl)CC3)c3c2CCC3)C[C@H](C)O1 [Example 133, 1-[4-(2-chloro-5-fluorophenoxy)piperidin-1-yl]-2-{3-[(2R,6S)-2,6-dimethylmorpholine-4-carbonyl]-5,6-dihydrocyclopenta[c]pyrazol-1(4H)-yl}ethan-1-one]
6.95	Cc1ccc(F)cc1OC1CCN(C(=O)Cn2nc(C(=O)N3C[C@@H](C)O[C@@H](C)C3)c3c2CCC3)CC1 [Example 135, 2-[3-(2,6-dimethylmorpholine-4-carbonyl)-5,6-dihydrocyclopenta[c]pyrazol-1(4H)-yl]-1-[4-(5-fluoro-2-methylphenoxy)piperidin-1-yl]ethan-1-one]

Second part, the molecule before the results:

Compound	pIC50
C[C@@H]1CN(C(=O)c2nn(CC(=O)N3CCC(Oc4cc(F)ccc4Br)CC3)c3c2CCC3)C[C@H](C)O1 [Example 91, 1-[4-(2-bromo-5-fluorophenoxy)piperidin-1-yl]-2-{3-[(2R,6S)-2,6-dimethylmorpholine-4-carbonyl]-5,6-dihydrocyclopenta[c]pyrazol-1(4H)-yl}ethan-1-one]	7.06
C[C@@H]1CN(C(=O)c2nn(CC(=O)N3CCC(Oc4cccc(F)c4)CC3)c3c2CCC3)C[C@H](C)O1 [Example 99, 2-{3-[(2R,6S)-2,6-dimethylmorpholine-4-carbonyl]-5,6-dihydrocyclopenta[c]pyrazol-1(4H)-yl}-1-[4-(3-fluorophenoxy)piperidin-1-yl]ethan-1-one]	6.24
C[C@@H]1CN(C(=O)c2nn(CC(=O)N3CCC(Oc4ccc(Cl)c5c4CCC5)CC3)c3c2CCC3)C[C@H](C)O1 [Example 129, 1-{4-[(7-chloro-2,3-dihydro-1H-inden-4-yl)oxy]piperidin-1-yl}-2-{3-[(2R,6S)-2,6-dimethylmorpholine-4-carbonyl]-5,6-dihydrocyclopenta[c]pyrazol-1(4H)-yl}ethan-1-one]	5.48
Cc1cccc(F)c1OC1CCN(C(=O)Cn2nc(C(=O)N3C[C@@H](C)O[C@@H](C)C3)c3c2CCC3)CC1 [Example 138, 2-{3-[(2R,6S)-2,6-dimethylmorpholine-4-carbonyl]-5,6-dihydrocyclopenta[c]pyrazol-1(4H)-yl}-1-[4-(2-fluoro-6-methylphenoxy)piperidin-1-yl]ethan-1-one]	6.62
Cc1ccccc1NC1CCN(C(=O)Cn2nc(C(=O)N3CCC(F)(CO)CC3)c3c2C[C@H]2C[C@@H]32)CC1 [Example 176, 2-((3bR,4aR)-3-(4-Fluoro-4-(hydroxymethyl)piperidine-1-carbonyl)-3b,4,4a,5-tetrahydro-1H-cyclopropa[3,4]cyclopenta[1,2-c]pyrazol-1-yl)-1-(4-(o-tolylamino)piperidin-1-yl)ethan-1-one]	6.40
Cc1ccccc1SC1CCN(C(=O)Cn2nc(C(=O)N3CC[C@@H](O)[C@@H](F)C3)c3c2C[C@H]2C[C@@H]32)CC1 [Example 177, 2-((3bR,4aR)-3-((3S,4R)-3-Fluoro-4-hydroxypiperidine-1-carbonyl)-3b,4,4a,5-tetrahydro-1H-cyclopropa[3,4]cyclopenta[1,2-c]pyrazol-1-yl)-1-(4-(o-tolylthio)piperidin-1-yl)ethanone]	6.27
